Each structure is given as a SMILES string.

The experiment concerns MV-4-11 cells. The experiment in a line: Gene expression microarray analysis (Affymetrix PrimeView) and GSEA. Further details: RFU PODN (11730768_x_at) / Fold change /veh PODN (11730768_x_at) / RFU LINC00158 (11744669_a_at) / Fold change /veh LINC00158 (11744669_a_at) / RFU DUSP10 (11751237_a_at) / Fold change /veh DUSP10 (11751237_a_at) / RFU ID3 (11757404_x_at) / Fold change /veh ID3 (11757404_x_at) / RFU PLEKHG5 (11737974_s_at) / Fold change /veh PLEKHG5 (11737974_s_at) / RFU LRRC4B (11730491_at) / Fold change /veh LRRC4B (11730491_at) / RFU GIMAP4 (11747438_a_at) / Fold change /veh GIMAP4 (11747438_a_at) / RFU KRT8 (11758183_x_at) / Fold change /veh KRT8 (11758183_x_at) / RFU CNN1 (11734310_a_at) / Fold change /veh CNN1 (11734310_a_at) / RFU VPS37D (11726825_at) / Fold change /veh VPS37D (11726825_at) / RFU C10orf10 (11716522_x_at) / Fold change /veh C10orf10 (11716522_x_at) / RFU KIR2DL2 /// KIR2DL4 /// KIR2DL5A /// KIR2DL5B /// KIR2DS1 /// KIR2DS2 /// KIR2DS3 /// KIR2DS4 /// KIR3DL3 /// KIR3DL3 /// KIR3DS1 (11738374_at) / Fold change /veh KIR2DL2 /// KIR2DL4 /// KIR2DL5A /// KIR2DL5B /// KIR2DS1 /// KIR2DS2 /// KIR2DS3 /// KIR2DS4 /// KIR3DL3 /// KIR3DL3 /// KIR3DS1 (11738374_at) / RFU C1QL1 (11718748_at) / Fold change /veh C1QL1 (11718748_at) / RFU TMPRSS4 (11747572_a_at) / Fold change /veh TMPRSS4 (11747572_a_at) / RFU HAMP (11756126_x_at) / Fold change /veh HAMP (11756126_x_at) / RFU RNFT2 (11725882_a_at) / Fold change /veh RNFT2 (11725882_a_at) / RFU NR4A2 (11747474_a_at) / Fold change /veh NR4A2 (11747474_a_at) / RFU ABCC12 (11746883_a_at) / Fold change /veh ABCC12 (11746883_a_at) / RFU TMEM136 (11760407_x_at) / Fold change /veh TMEM136 (11760407_x_at) / RFU CLDN22 /// WWC2 (11732394_at) / Fold change /veh CLDN22 /// WWC2 (11732394_at) / RFU HLA-DPB1 (11760878_x_at) / Fold change /veh HLA-DPB1 (11760878_x_at) / RFU SPINT1 (11716480_a_at) / Fold change /veh SPINT1 (11716480_a_at) / RFU GAP43 (11754022_s_at) / Fold change /veh GAP43 (11754022_s_at) / RFU A4GNT (11735810_at) / Fold change /veh A4GNT (11735810_at) / RFU PRB3 (11715151_x_at) / Fold change /veh PRB3 (11715151_x_at) / RFU TUBB4B (11761932_at) / Fold change /veh TUBB4B (11761932_at) / RFU CAPN14 (11732068_a_at) / Fold change /veh CAPN14 (11732068_a_at) / RFU TMCC2 (11721928_a_at) / Fold change /veh TMCC2 (11721928_a_at) / RFU IRGQ (11745062_a_at) / Fold change /veh IRGQ (11745062_a_at) / RFU FAM174B (11720279_a_at) / Fold change /veh FAM174B (11720279_a_at) / RFU TMPRSS4 (11748680_a_at) / Fold change /veh TMPRSS4 (11748680_a_at) / RFU FAM212B (11763350_a_at) / Fold change /veh FAM212B (11763350_a_at) / RFU PLEKHG5 (11743358_a_at) / Fold change /veh PLEKHG5 (11743358_a_at) / RFU ZSCAN30 (11745921_a_at) / Fold change /veh ZSCAN30 (11745921_a_at) / RFU CMKLR1 (11741424_a_at) / Fold change /veh CMKLR1 (11741424_a_at) / RFU LOC101060620 /// MAPK8IP1 (11723275_at) / Fold change /veh LOC101060620 /// MAPK8IP1 (11723275_at) / RFU SPTSSB (11747773_x_at) / Fold change /veh SPTSSB (11747773_x_at) / RFU PRSS12 (11739890_at) / Fold change /veh PRSS12 (11739890_at) / RFU BIN1 (11741810_x_at) / Fold change /veh BIN1 (11741810_x_at) / RFU WNT11 (11732464_a_at) / Fold change /veh WNT11 (11732464_a_at) / RFU C10orf10 (11716521_a_at) / Fold change /veh C10orf10 (11716521_a_at) / RFU C5orf56 (11738089_at) / Fold change /veh C5orf56 (11738089_at) / RFU CYB561 (11721691_x_at) / Fold change /veh CYB561 (11721691_x_at) / RFU ANKRD19P (11752326_a_at) / Fold change /veh ANKRD19P (11752326_a_at) / RFU OR2T12 /// OR2T33 /// OR2T8 (11738714_s_at) / Fold change /veh OR2T12 /// OR2T33 /// OR2T8 (11738714_s_at) / RFU VCAN (11748164_a_at) / Fold change /veh VCAN (11748164_a_at) / RFU JSRP1 (11732532_at) / Fold change /veh JSRP1 (11732532_at) / RFU KRTAP10-11 (11738290_x_at) / Fold change /veh KRTAP10-11 (11738290_x_at) / RFU MYO3A (11730013_a_at) / Fold change /veh MYO3A (11730013_a_at) / RFU EBF3 (11725865_a_at) / Fold change /veh EBF3 (11725865_a_at) / RFU CAMK2N1 (11719241_x_at) / Fold change /veh CAMK2N1 (11719241_x_at) / RFU C5orf56 (11738088_a_at) / Fold change /veh C5orf56 (11738088_a_at) / RFU OLFML3 (11715873_a_at) / Fold change /veh OLFML3 (11715873_a_at) / RFU LOC100653217 /// NTM (11731650_a_at) / Fold change /veh LOC100653217 /// NTM (11731650_a_at) / RFU MAPK11 (11762145_a_at) / Fold change /veh MAPK11 (11762145_a_at) / RFU FIZ1 (11724087_x_at) / Fold change /veh FIZ1 (11724087_x_at) / RFU OASL (11726364_x_at) / Fold change /veh OASL (11726364_x_at) / RFU SOX15 (11748057_x_at) / Fold change /veh SOX15 (11748057_x_at) / RFU CD79A (11719716_a_at) / Fold change /veh CD79A (11719716_a_at) / RFU HIST1H1D (11736915_at) / Fold change /veh HIST1H1D (11736915_at) / RFU CASKIN2 (11723855_a_at) / Fold change /veh CASKIN2 (11723855_a_at) / RFU LOC730098 (11760151_x_at) / Fold change /veh LOC730098 (11760151_x_at) / RFU OR4N2 (11742367_at) / Fold change /veh OR4N2 (11742367_at) / RFU PRRT2 (11749266_a_at) / Fold change /veh PRRT2 (11749266_a_at) / RFU SNX32 (11753110_a_at) / Fold change /veh SNX32 (11753110_a_at) / RFU CDHR5 (11726645_a_at) / Fold change /veh CDHR5 (11726645_a_at) / RFU RCAN1 (11760418_a_at) / Fold change /veh RCAN1 (11760418_a_at) / RFU FAM167A (11723789_a_at) / Fold change /veh FAM167A (11723789_a_at) / RFU FAM26E (11764081_at) / Fold change /veh FAM26E (11764081_at) / RFU ISYNA1 (11749810_s_at) / Fold change /veh ISYNA1 (11749810_s_at) / RFU ACY1 (11761880_at) / Fold change /veh ACY1 (11761880_at) / RFU 11764098_at / Fold change /veh 11764098_at / RFU SAMD14 (11745864_x_at) / Fold change /veh SAMD14 (11745864_x_at) / RFU NPB (11741838_a_at) / Fold change /veh NPB (11741838_a_at) / RFU TMPRSS6 (11731388_a_at) / Fold change /veh TMPRSS6 (11731388_a_at) / RFU KRTAP10-2 (11738614_at) / Fold change /veh KRTAP10-2 (11738614_at) / RFU ARHGAP8 /// PRR5-ARHGAP8 (11727945_x_at) / Fold change /veh ARHGAP8 /// PRR5-ARHGAP8 (11727945_x_at) / RFU KRTAP5-7 /// NADSYN1 (11734609_at) / Fold change /veh KRTAP5-7 /// NADSYN1 (11734609_at) / RFU RASL12 (11751679_a_at) / Fold change /veh RASL12 (11751679_a_at) / RFU CDKN2B (11736163_a_at) / Fold change /veh CDKN2B (11736163_a_at) / RFU PRF1 (11729649_at) / Fold change /veh PRF1 (11729649_at) / RFU, ZNF638 /// ZNF638-IT1 / Fold change vs veh, ZNF638 /// ZNF638-IT1 / RFU, PANK3 / Fold change vs veh, PANK3 / RFU, SH3YL1 / Fold change vs veh, SH3YL1 / RFU, ZEB2 / Fold change vs veh, ZEB2 / RFU, NRIP1 / Fold change vs veh, NRIP1 / RFU, PTTG1IP / Fold change vs veh, PTTG1IP / RFU, CAPN2 / Fold change vs veh, CAPN2 / RFU, MED14 / Fold change vs veh, MED14 / RFU, SNORA58 / Fold change vs veh, SNORA58 / RFU, C1orf63 / Fold change vs veh, C1orf63 / RFU, LRRFIP1 / Fold change vs veh, LRRFIP1 / RFU, NDUFAF7 / Fold change vs veh, NDUFAF7 / RFU, SLC12A2 / Fold change vs veh, SLC12A2 / RFU, IBTK / Fold change vs veh, IBTK / RFU, ESF1 / Fold change vs veh, ESF1 / Fold change vs veh, TMEM50B / RFU, TAOK1 / Fold change vs veh, TAOK1 / RFU, ACBD3 / Fold change vs veh, ACBD3 / RFU, TMA16 / Fold change vs veh, TMA16 / RFU, RWDD3 / Fold change vs veh, RWDD3 / RFU, BCAT1 / Fold change vs veh, BCAT1 / RFU, EDEM3 / Fold change vs veh, EDEM3 / RFU, TMEM33 / Fold change vs veh, TMEM33 / RFU, WDR75 / Fold change vs veh, WDR75 / RFU, AHCTF1 / Fold change vs veh, AHCTF1 / RFU, TFRC / Fold change vs veh, TFRC / RFU, ZDHHC17 / Fold change vs veh, ZDHHC17 / RFU, NOM1 / Fold change vs veh, NOM1 / RFU, ARL8B / Fold change vs veh, ARL8B / RFU, ZBTB11 / Fold change vs veh, ZBTB11 / RFU, TAMM41 / Fold change vs veh, TAMM41 / RFU, KIAA1704 /// LOC100996395 / Fold change vs veh, KIAA1704 /// LOC100996395 / RFU, ING1 / Fold change vs veh, ING1 / RFU, TRMT61B / Fold change vs veh, TRMT61B / RFU, FUBP3 / Fold change vs veh, FUBP3 / RFU, TP53 / Fold change vs veh, TP53 / RFU, TNKS2 / Fold change vs veh, TNKS2 / RFU, ZFP14 / Fold change vs veh, ZFP14 / RFU, ACTR2 / Fold change vs veh, ACTR2 / RFU, PPP3R1 / Fold change vs veh, PPP3R1 / RFU, PIK3R1 / Fold change vs veh, PIK3R1 / RFU, HNRNPA1 / Fold change vs veh, HNRNPA1 / RFU, RNF170 / Fold change vs veh, RNF170 / RFU, ZNF28 / Fold change vs veh, ZNF28 / RFU, RNGTT / Fold change vs veh, RNGTT / RFU, OGT / Fold change vs veh, OGT / RFU, BRD1 / Fold change vs veh, BRD1 / RFU, MARS / Fold change vs veh, MARS / RFU, ZNF655 / Fold change vs veh, ZNF655 / RFU, FAHD1 / Fold change vs veh, FAHD1 / RFU, BDP1 / Fold change vs veh, BDP1 / RFU, LRRCC1 / Fold change vs veh, LRRCC1 / RFU, ARID1A / Fold change vs veh, ARID1A / RFU, ZNF146 / Fold change vs veh, ZNF146 / RFU, ZNF330 / Fold change vs veh, ZNF330 / RFU, GPN3 / Fold change vs veh, GPN3 / RFU, C9orf123 / Fold change vs veh, C9orf123 / RFU, N4BP2L2 / Fold change vs veh, N4BP2L2 / RFU, ARFIP1 / Fold change vs veh, ARFIP1 / RFU, FAM179B / Fold change vs veh, FAM179B / RFU, BCL10 / Fold change vs veh, BCL10 / RFU, UHRF1BP1L / Fold change vs veh, UHRF1BP1L / RFU, BET1 / Fold change vs veh, BET1 / RFU, CNOT2 / Fold change vs veh, CNOT2 / RFU, ZNF268 / Fold change vs veh, ZNF268 / Fold change vs veh, ZNF507 / RFU, DGCR2 / Fold change vs veh, DGCR2 / RFU, WDSUB1 / Fold change vs veh, WDSUB1 / Fold change vs veh, HSP90B1 /// MIR3652 / RFU, ADSS / Fold change vs veh, ADSS / RFU, GK / Fold change vs veh, GK / RFU, ZNF148 / Fold change vs veh, ZNF148 / RFU, TAF9 / Fold change vs veh, TAF9 / RFU, SLC1A5 / Fold change vs veh, SLC1A5 / RFU, SLMO2 / Fold change vs veh, SLMO2 / RFU, ABCC4 / Fold change vs veh, ABCC4 / RFU, LOC101060439 /// RAP1B / Fold change vs veh, LOC101060439 /// RAP1B / RFU, RFX7 / Fold change vs veh, RFX7 / RFU, GTPBP10 / Fold change vs veh, GTPBP10 / RFU, CNEP1R1 / Fold change vs veh, CNEP1R1 / RFU, BIVM-ERCC5 /// ERCC5 / Fold change vs veh, BIVM-ERCC5 /// ERCC5 / RFU, ILF3 / Fold change vs veh, ILF3 / RFU 11762660_at / Fold change /veh 11762660_at / RFU VCAN (11757783_s_at) / Fold change /veh VCAN (11757783_s_at) / RFU DDX43 (11728927_at) / Fold change /veh DDX43 (11728927_at) / RFU KRT8 (11758188_x_at) / Fold change /veh KRT8 (11758188_x_at) / RFU NKD1 (11759106_at) / Fold change /veh NKD1 (11759106_at) / RFU SRD5A1 (11742802_a_at) / Fold change /veh SRD5A1 (11742802_a_at) / RFU TPSAB1 /// TPSB2 (11721975_s_at) / Fold change /veh TPSAB1 /// TPSB2 (11721975_s_at) / RFU GSTM3 (11746129_a_at) / Fold change /veh GSTM3 (11746129_a_at) / RFU IL23R (11737362_x_at) / Fold change /veh IL23R (11737362_x_at) / RFU TMEM51 (11727254_a_at) / Fold change /veh TMEM51 (11727254_a_at) / RFU PIWIL2 (11732686_x_at) / Fold change /veh PIWIL2 (11732686_x_at) / RFU ORM1 (11744905_x_at) / Fold change /veh ORM1 (11744905_x_at) / RFU CCDC152 (11743942_at) / Fold change /veh CCDC152 (11743942_at) / RFU ECM1 (11717891_a_at) / Fold change /veh ECM1 (11717891_a_at) / RFU IL23R (11748794_a_at) / Fold change /veh IL23R (11748794_a_at) / RFU TNFAIP8L3 (11732012_x_at) / Fold change /veh TNFAIP8L3 (11732012_x_at) / RFU MBOAT4 (11741988_at) / Fold change /veh MBOAT4 (11741988_at) / RFU 11764193_at / Fold change /veh 11764193_at / RFU TMEM53 (11763286_at) / Fold change /veh TMEM53 (11763286_at) / RFU MAGEB2 (11727129_at) / Fold change /veh MAGEB2 (11727129_at) / RFU TMEM200A (11744735_a_at) / Fold change /veh TMEM200A (11744735_a_at) / RFU CCDC152 (11751479_a_at) / Fold change /veh CCDC152 (11751479_a_at) / RFU FAM211A (11726209_a_at) / Fold change /veh FAM211A (11726209_a_at) / RFU RGS16 (11746705_a_at) / Fold change /veh RGS16 (11746705_a_at) / RFU VCAN (11755009_s_at) / Fold change /veh VCAN (11755009_s_at) / RFU RHOB (11743442_s_at) / Fold change /veh RHOB (11743442_s_at) / RFU RGS16 (11720943_a_at) / Fold change /veh RGS16 (11720943_a_at) / RFU RGS16 (11720944_at) / Fold change /veh RGS16 (11720944_at) / RFU, VPS4B / Fold change vs veh, VPS4B / RFU, CREB1 / Fold change vs veh, CREB1 / RFU, DNAJC13 / Fold change vs veh, DNAJC13 / RFU, GNAQ / Fold change vs veh, GNAQ / RFU, CDK5R1 / Fold change vs veh, CDK5R1 / RFU, ZRANB3 / Fold change vs veh, ZRANB3 / RFU, CUL4A / Fold change vs veh, CUL4A / RFU, CCNY / Fold change vs veh, CCNY / RFU, UFL1 / Fold change vs veh, UFL1 / RFU, COG3 / Fold change vs veh, COG3 / RFU, DIAPH2 / Fold change vs veh, DIAPH2 / RFU, SKA2 / Fold change vs veh, SKA2 / RFU, AFF3 / Fold change vs veh, AFF3 / RFU, LMF1 / Fold change vs veh, LMF1 / RFU, IPO11 / Fold change vs veh, IPO11 / RFU, DFFB / Fold change vs veh, DFFB / RFU, FOXP1 / Fold change vs veh, FOXP1 / RFU, CARD8 / Fold change vs veh, CARD8 / RFU, STRN3 / Fold change vs veh, STRN3 / RFU, ADK / Fold change vs veh, ADK / RFU, RASSF2 / Fold change vs veh, RASSF2 / RFU, WIPF1 / Fold change vs veh, WIPF1 / RFU, LARP1B / Fold change vs veh, LARP1B / RFU, RASA1 / Fold change vs veh, RASA1 / RFU, RB1 / Fold change vs veh, RB1 / RFU, PPFIA1 / Fold change vs veh, PPFIA1 / RFU, MAT2A / Fold change vs veh, MAT2A / RFU, CCT5 / Fold change vs veh, CCT5 / RFU, WDR92 / Fold change vs veh, WDR92 / RFU, CUX1 / Fold change vs veh, CUX1 / RFU, TTC7A / Fold change vs veh, TTC7A / RFU, TMEM135 / Fold change vs veh, TMEM135 / RFU, DEPTOR / Fold change vs veh, DEPTOR / RFU, CPM / Fold change vs veh, CPM / RFU, DNAJB6 / Fold change vs veh, DNAJB6 / RFU, CACNA2D3 / Fold change vs veh, CACNA2D3 / RFU, DTX4 / Fold change vs veh, DTX4 / RFU, TFCP2 / Fold change vs veh, TFCP2 / RFU, GMCL1 /// GMCL1P1 / Fold change vs veh, GMCL1 /// GMCL1P1 / RFU, AEBP2 / Fold change vs veh, AEBP2 / RFU, SNHG1 /// SNORD22 /// SNORD25 /// SNORD26 /// SNORD27 /// SNORD28 /// SNORD29 /// SNORD31 / Fold change vs veh, SNHG1 /// SNORD22 /// SNORD25 /// SNORD26 /// SNORD27 /// SNORD28 /// SNORD29 /// SNORD31 / Fold change (Aza/veh), C12orf56 (ProbeSet 11735607_a_at) / Fold change (ACY-1035/veh), C12orf56 (ProbeSet 11735607_a_at) / Fold change (Aza/veh), FGFR1OP (ProbeSet 11751329_s_at) / Fold change (ACY-1035/veh), FGFR1OP (ProbeSet 11751329_s_at) / Fold change (Aza/veh), VPS36 (ProbeSet 11739960_a_at) / Fold change (ACY-1035/veh), VPS36 (ProbeSet 11739960_a_at) / RFU SYPL1 (11715823_x_at) / Fold change /veh SYPL1 (11715823_x_at) / RFU IGFBP7 (11715501_s_at) / Fold change /veh IGFBP7 (11715501_s_at) / RFU REEP3 (11722064_at) / Fold change /veh REEP3 (11722064_at) / RFU IGLL1 (11728026_x_at) / Fold change /veh IGLL1 (11728026_x_at): dose or concentration left out as unconfirmed. To be noted: ProbeSet 11750457_a_at; LIST B. The experiment is classed as cell-based, human.

In the case of `Nc1ncn([C@@H]2O[C@H](CO)[C@@H](O)[C@H]2O)c(=O)n1` [azacitidine], the “RFU, GTPBP10” value turned out to be 30.84 RFU.

These data come from PMC5218480 (PLoS ONE, 2017).
